Molecules are shown by their SMILES. Calls of active or inactive are those of the source.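 How the source made its calls: active means IC50 at or below 10 micromolar; inactive means IC50 above 10 micromolar.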

In the test the target is Steroidogenic factor 1 (Homo sapiens) (UniProt Q13285). Briefly: blockers of SF-1 LBD reporter transcription – cell-based, CHO-K1, Gal4-SF-1 LBD, luciferase luminescence, dose response (AID 600). Conditions: CHO-K1 Gal4-SF-1 LBD luciferase reporter. In general terms: In a reporter assay the amount or activity of a reporter protein is the signal.
Chain of Steroidogenic factor 1 (Homo sapiens) (Q13285 whole entry, looked up, the tested form may be a part): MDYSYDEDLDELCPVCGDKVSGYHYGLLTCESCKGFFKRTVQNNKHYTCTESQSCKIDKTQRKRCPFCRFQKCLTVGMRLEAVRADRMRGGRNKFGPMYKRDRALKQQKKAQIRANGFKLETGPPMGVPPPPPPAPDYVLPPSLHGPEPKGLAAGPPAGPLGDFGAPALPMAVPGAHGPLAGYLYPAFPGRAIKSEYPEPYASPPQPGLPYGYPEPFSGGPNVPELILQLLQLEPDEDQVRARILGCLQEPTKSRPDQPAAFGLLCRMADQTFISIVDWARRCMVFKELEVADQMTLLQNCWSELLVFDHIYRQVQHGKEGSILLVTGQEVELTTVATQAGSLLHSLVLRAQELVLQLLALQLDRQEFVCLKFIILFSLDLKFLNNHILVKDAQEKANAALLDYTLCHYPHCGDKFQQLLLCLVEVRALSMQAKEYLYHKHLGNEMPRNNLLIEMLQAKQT
The IC50 is the concentration at which inhibition is half-maximal. Regarding `O=S(=O)(c1ccc2c(c1)C(=NO)c1cc(S(=O)(=O)N3CCCCC3)ccc1-2)N1CCCCC1`, the IC50 was 1.51 µM.
With `COc1cc(C2C(C#N)=C(N)Oc3cc(N)ccc32)cc(OC)c1OC` (stereo not drawn) the figure was 7.92 µM; with `N#CC1=C(N)C(C#N)(C#N)[C@H](c2ccncc2)[C@H]2CN(C(=O)OCc3ccccc3)CC=C12`, “inactive”; with `COc1cc(/C=N/O)ccc1OCc1ccc(C(=O)O)cc1`, 1.16 µM.
With `COC(=O)C1=C(CN2CCCc3ccccc32)NC(=O)NC1c1ccc(F)cc1` (stereo not drawn) the figure was 5.34 µM; with `CSC1=C(C#N)C(c2ccc(Cl)cc2)C2=C(CC(C)(C)CC2=O)N1` (stereo not drawn), “inactive”.
Next, `CN(C)c1ccc2c(c1)OC(N)=C(C#N)C2c1cccc(F)c1` (stereo not drawn): “inactive”; `O=C(/C=C\Nc1ccc2c(c1)OCO2)c1ccccn1`: “inactive”; `O=C(/C=C\Nc1ccccn1)c1ccc(Cl)cc1`: 6.09 µM.
As for `Cc1ccc(C(=O)/C=C/Nc2ccccn2)cc1`, the IC50 was > 11 µM (inactive).
Next, `COC(=O)c1ccc(N2C(=O)CC(N3CCC(n4c(=O)[nH]c5ccccc54)CC3)C2=O)cc1` (stereo not drawn): > 99 µM (inactive); `CCOC(=O)C1=C(Cn2cnc3ccccc32)NC(=O)NC1c1cc(C)ccc1C` (stereo not drawn): “inactive”; `O=C(/C=C\Nc1cccc(F)c1)c1ccc2c(c1)OCO2`: 4.65 µM.
With `CN(C)c1ccc(N/C=C/C(=O)c2ccccc2)cc1` the figure was > 11 µM (inactive).
Next, `COc1cc(C2C(C#N)=C(N)Oc3cc(N(C)C)ccc32)cc2c1OCO2` (stereo not drawn): > 3.67 µM (inactive); `CCOc1ccccc1-n1c(SCC(=O)Nc2ccc(CC)cc2)nc2n[nH]c(C)c2c1=N`: 5.99 µM; `CCN(CC)c1ccc2c(c1)OC(N)=C(C#N)C2c1cccnc1` (stereo not drawn): > 3.67 µM (inactive).
For `CC(=O)CC1OC(=O)C(Br)=C1NCc1ccccc1` (stereo not drawn), the IC50 is > 11 µM (inactive).

Values taken from PubChem BioAssay AID600 (The Scripps Research Institute Molecular Screening Center, 2007).
